From patent publication US9999611B2, “SIRT 1 activator including syringaresinol” (AMOREPACIFIC CORPORATION, priority 2011, dated 2018) come the findings set out here.

For one assay, the system named is ACO, CPT1, mCAD. The experiment in a line: Expression of fatty acid oxidation-related genes (qRT-PCR). Format: cell-based, human. The settings on record: 50 μM, vs DMSO control. On the procedure: (§1) Human adipocytes, hepatocytes and myocytes were treated with 50 μM syringaresinol and washed with PBS in substantially the same manner as in Test Example 3. RNA was extracted from the cells and cDNA was synthesized therefrom. The change in expression pattern of fatty acid synthesis-related genes such as ADD1/SREBP1c, ACC, FAS, etc. and fatty acid oxidation-related genes such as ACO, CPT1, mCAD, etc. was measured by qRT-PCR.

Another assay has as its system PGC-1α. The experiment in a line: PGC-1α mRNA expression promoting effect (qRT-PCR). Format: cell-based, human. The settings on record: 50 μM, vs DMSO control, FIG. 12. On the procedure: Human adipocytes, hepatocytes and myocytes were treated with 50 μM syringaresinol in substantially the same manner as in Test Example 3 and washed with PBS. Then, RNA and cDNA were sequentially extracted therefrom. The mRNA expression of the energy metabolism-related genes PGC-1α and PGC-1β was analyzed by qRT-PCR. A result of comparing the expression of PGC-1α and PGC-1β with a control group treated only with DMSO is shown in FIG. 12 and FIG. 13, respectively.
(Real-time PCR tracks product formation cycle by cycle.)

Assay [1] relates to SIRT1. The experiment in a line: SIRT1 expression promoting effect in aged human retinal epithelial cells (western blotting). The settings on record: aged ARPE-19 cells (5 PDL to 15 PDL), FIG. 14. Format: cell-based. The procedure:
The SIRT1 gene expression promoting effect of syringaresinol in aged human retinal epithelial cells was evaluated as follows. Human retinal […] cell line ARPE-19 was purchased from ATCC (Manassa, Va., USA) and cultured in a 5% CO2 incubator using DMEM (Gibco BRL, Grand Island, N.Y., USA) containing 10% bovine serum, 1% penicillin/streptomycin, amphotericin B and an antifungal agent until 70% confluency. […] The population doubling level (PDL) was calculated according to the following equation for each generation until the cell growth was stopped. The PDL value is higher in aged cells. PDL=(Log10Y−Log10X)/Log102 Y: number of cells at the end of the generation X: number of cells at the beginning of the generation 5 PDL cells were treated with syringaresinol dissolved in DMSO at a concentration of 50 or 100 μM every other day while inducing aging to 15 PDL cells. The cells of a negative control were treated with DMSO corresponding to 1/1000 of the volume of the culture medium. […] The isolated protein was quantitated using the BCA assay kit (Pierce, Rockford, USA) and 30 μg was subjected to western blotting using the iBlot Dry blotting system (Invitrogen, Carlsbad, Calif., USA). The SIRT1 protein expression level was measured using anti-SIRT1 antibody (Santa Cruz Biotechnology, Santa Cruz, Calif., USA).
Background: A western blot detects proteins with antibodies after separation by electrophoresis.

Another assay relates to human PBMCs. The experiment in a line: Human PBMC migration and deposition onto 3T3-L1 adipocytes (TNF-induced). The format is cell-based. The settings on record: human PBMCs, 20, 50 or 100 μM, 10 ng/mL TNF, differentiated 3T3-L1 adipocytes, 48 hours; FIG. 20. The procedure:
After treating human PBMCs with 20, 50 or 100 μM syringaresinol or DMSO in substantially the same manner as in Test Example 11, inflammatory response was induced by treating with 10 ng/mL TNF. After treating differentiated 3T3-L1 adipocytes (Zen-Bio) with the PBMCs, it was investigated whether the PBMCs migrate onto the adipocytes and deposit. 48 hours later, after removing the PBMCs remaining without migrating, the cells were detached from a culture dish using trypsin/EDTA and then counted using a cell counter.

In assay [2] the test system is aged retinal cells (ARPE-19). The assay can be described thus: Mitochondrial function recovering effect in aged retinal cells: energy (ATP) production. Format: cell-based, human. The settings on record: compared to cells treated only with DMSO, FIG. 16. On the procedure:
(§2) The aging of retinal cells was induced while treating with 50 or 100 μM syringaresinol or with DMSO as a negative control, in substantially the same manner as in Test Example 7. For evaluation of mitochondrial function recovering effect, the level of energy (ATP) and reactive oxygen species production in retinal cells was investigated. The energy production was determined by recovering the aged cells after washing with PBS and then with hot water and measuring luminescence using the ATP determination kit (Molecular Probes, Eugene, Oreg., USA) and the Tecan system (Infinite M200, Tecan, Austria). The reactive oxygen species production was measured using a flow cytometer (BD Biosciences, San Jose, Calif., USA) after washing the aged cells with PBS and staining them with the reactive oxygen species detection reagent (H2DCFDA, Invitrogen, Carlsbad, Calif., USA).

Assay [3] deals with aged retinal cells (ARPE-19). The assay can be described thus: Mitochondrial function recovering effect in aged retinal cells: reactive oxygen species production (H2DCFDA, flow cytometer). Format: cell-based, human. The settings on record: compared to cells treated only with DMSO, FIG. 16. The procedure: as §2
A general note: Flow cytometry measures light scatter and fluorescence of single cells or particles in a stream.

The test system of a further assay is Human hepatocytes. The experiment in a line: Fatty acid oxidation promoting ability (3H2O in medium), hepatocytes. The format is cell-based. The settings on record: 50 μM, vs non-treated group, FIG. 11. The procedure: (§3) Human adipocytes, hepatocytes and myocytes were treated with 50 μM syringaresinol in substantially the same manner as in Test Example 3. The cells were washed with PBS and cultured for a day in a medium for fatty acid oxidation analysis. The medium was recovered and the amount of ^3H2O was measured.

A further assay concerns Human myocytes. The experiment in a line: Fatty acid oxidation promoting ability (3H2O in medium), myocytes. The format is cell-based. The settings on record: 50 μM, vs non-treated group, FIG. 11. On the procedure:
as §3

For the next assay, the system named is ADD1/SREBP1c, ACC, FAS. The experiment in a line: Expression of fatty acid synthesis-related genes (qRT-PCR). Format: cell-based, human. The settings on record: 50 μM, vs DMSO control. On the procedure:
as §1

Assay [4] has as its system SIRT1. The assay can be described thus: SIRT1 expression promoting effect in adipocytes, hepatocytes and myocytes (qRT-PCR). Format: cell-based, human. The settings on record: 24 hours, FIG. 4. On the procedure:
The SIRT1 gene expression promoting effect of syringaresinol in human adipocytes, hepatocytes and myocytes was evaluated as follows.
Human adipocytes, hepatocytes and myocytes were purchased from Zen-Bio (Research Triangle Park, N.C., USA) and cultured in a 5% CO2 incubator using respectively an adipocyte medium (OM-AM, Zen-Bio), a hepatocyte medium (HM-2, Zen-Bio) and a myocyte medium (SKM-D, SKM-M, Zen-Bio). The cells were treated with syringaresinol dissolved in DMSO to a concentration of 20, 50 or 100 μM for 24 hours. A negative control group was treated with DMSO corresponding to 1/1000 of the volume of the culture medium.
The cells treated with each sample were washed 2 times with cold PBS and RNA was extracted therefrom using the TRIzol reagent (Invitrogen). Then, cDNA was synthesized from the extracted RNA ([…]) using a reverse transcription system (Fermentas, Glen Burnie, Md., USA). The expression pattern of the SIRT1 and GAPDH genes was monitored by qRT-PCR using the synthesized cDNA and predesigned primers and probes. PCR reaction and analysis were carried out using the Rotor-Gene 3000 system (Corbett Research, Sydney, Australia).

Regarding `COc1cc(C2OCC3C(c4cc(OC)c(O)c(OC)c4)OCC23)cc(OC)c1O` (stereo not drawn) [syringaresinol], the “expression of fatty acid oxidation promoting genes” value with ACO, CPT1, mCAD (human adipocytes, FIG. 8) is “increased the expression of fatty acid oxidation promoting genes”; in the assay on ACO, CPT1, mCAD (human hepatocytes, FIG. 9), “increased the expression of fatty acid oxidation promoting genes”; with ACO, CPT1, mCAD (human myocytes, FIG. 10), “increased the expression of fatty acid oxidation promoting genes”. Moreover, the “expression of PGC-1α” value in the assay on PGC-1α (human adipocytes), with PGC-1α (human hepatocytes) and in the assay with PGC-1α (human myocytes) was “increased the expression” throughout. For the same compound, the SIRT1 protein expression result in the assay on SIRT1 [1] (100 μM every other day) is “increased SIRT1 expression to a level comparable to that of young retinal epithelial cells”; in the assay with SIRT1 [1] (50 or 100 μM every other day), “increased SIRT1 expression, which had been decreased in aged retinal cells, in a concentration-dependent manner”. The “inhibition of migration and deposition of PBMCs onto adipocytes” value in the assay on human PBMCs is “about 50%”. Moreover, the “increased energy (ATP) production” value in [2] (50 μM) is reported as “about 21%”; in assay [2] (100 μM) it was roughly 33%. In addition, the “decreased reactive oxygen species production” value was “about 7%” in assay [3] (50 μM) and roughly 11% in assay [3] (100 μM). Besides, the fatty acid oxidation result in the assay on Human hepatocytes and with Human myocytes was “increased fatty acid oxidation” each time. Also, the “expression of fatty acid synthesis-inducing genes” value with ADD1/SREBP1c, ACC, FAS (human adipocytes, FIG. 5) was “suppressed the expression of fatty acid synthesis-inducing genes”; in the assay with ADD1/SREBP1c, ACC, FAS (human hepatocytes, FIG. 6), “suppressed the expression of fatty acid synthesis-inducing genes”; in the assay with ADD1/SREBP1c, ACC, FAS (human myocytes, FIG. 7) it was “suppressed the expression of fatty acid synthesis-inducing genes”. For the same compound, the SIRT1 expression result in the assay with SIRT1 [4] (human adipocytes, 20, 50 or 100 μM) was “increased SIRT1 expression”; in the assay on SIRT1 [4] (human hepatocytes, 20, 50 or 100 μM), “increased SIRT1 expression”; with SIRT1 [4] (human myocytes, 20, 50 or 100 μM), “increased SIRT1 expression”.
